Data set [1] deals with Bk2, [Val]1[Thr]6-bradykinyl-Gln-Ser relative to bradykinin: R1V;S6T; C-terminal extension Gln10-Ser11. Briefly: Intrinsic tryptophan (Trp82) fluorescence quenching titration; excitation 295 nm, emission 300-400 nm (analysed at 355 nm). The following applies: 25 °C, not stated for the fluorescence assays at pH 5.0, 7.4 and 9.0 (2 mM Tris-HCl pH 7.4 is given only for DLS and CD).

Data set [2] deals with Bradykinin (Bk) (UniProt P01042). Described as above. The following applies: 25 °C, not stated for the fluorescence assays at pH 5.0, 7.4 and 9.0 (2 mM Tris-HCl pH 7.4 is given only for DLS and CD).
Data set [3] deals with Bk1, [Val]1[Thr]6-bradykinyl-Val-Asp relative to bradykinin: R1V;S6T; C-terminal extension Val10-Asp11. The data set is described as above. The following applies: 25 °C, not stated for the fluorescence assays at pH 5.0, 7.4 and 9.0 (2 mM Tris-HCl pH 7.4 is given only for DLS and CD).
The test system of data set [4] is guinea pig (Cavia porcellus) ileum. Briefly: Smooth muscle constriction force assay, guinea pig ileum. The procedure:
Male guinea pigs (Cavia porcellus) weighing between 200 and 300 g and fasted for 24 h were euthanized using an overdose of anesthetic at 120 mg/kg (ketamine and xylazine). The protocol was approved by the Committee on the Ethics of Animal Experiments of the Institute of Biology, University of Brasilia (Proc. Number 737402/2008). Segments of 2 cm from the terminal portion of the ileum were removed and washed in Tyrode’s solution (g/L: 8.00 NaCl,0.20 KCl, 0.20 CaCl2, 0.21 MgCl2), and attached to a glass rod that was immersed in a physiological bath chamber with a capacity of 10 mL containing Tyrode solution at 37 °C. In the opposite region, a thread of silk was attached to the F-60 isometric transducer connected to a polygraph (NARCO Bio-Systems, Houston, TX, USA). The bath was kept aerated constantly with carbogen (95% O2 + 5% CO2). Previously, as a control, smooth muscle response was analyzed using Bk from Sigma Aldrich. Experiments were done in triplicate, and constriction force was analyzed by addition of Bk and analogues in the absence or presence of BTCI, in three concentrations: 1, 5 or 10 µM. The hypotensive effects of the complexes were also evaluated in the presence of trypsin or chymotrypsin. After each experiment, the bath solution was exchanged three times in order to remove the drug used. Statistical analysis was carried out using the Paleontological Statistics (PAST) Software Package for Education and Data Analysis. A value of Student’s t-test p < 0.05 was considered to denote a significant difference.

A short description of data set [5]: Dynamic light scattering, free peptides and free BTCI. The class given is physicochemical. The following applies: 25 µM, 2 mM Tris-HCl pH 7.4, 37 °C. The method, then:
(§1) The hydrodynamic properties of the BTCI through the complex formation with Bk and analogues were monitored using DLS technique with laser source operated at 800 nm on the DynaPro LSR model (Wyatt Technology Corporation, Santa Barbara, CA, USA). The internal temperature was controlled by a Peltier system coupled to the detector. The Bk, Bk-related peptides, BTCI and BTCI-Bk, BTCI-Bk-related peptides complexes, were incubated for 30 minutes in 2 mM Tris-HCl pH 7.4 and then centrifuged at 5000 g and filtered ([…]) before the DLS experiments. The average of 100 acquisitions for each measure was considered for BTCI (25 µM) and synthetic Bk-related peptides (25 µM) separately and subsequently for the BTCI-Bk complexes (1:1). The formation of complexes was analyzed at 37 °C, considering the relationship of the scattered light intensity signal and the hydrodynamic diameter of the samples, using the Dynamics V6 program (Wyatt Technology Corporation).

For data set [6], the system named is BTCI. Briefly: Fluorescence quenching of BTCI by Bk-related peptides. The class given is binding, Vigna unguiculata. The following applies: for Binding constant Kb (association) of BTCI in complex with peptide / Stern-Volmer quenching constant KSV of BTCI in complex with peptide: BTCI 25 µM, peptide 25-500 µM; for Stern-Volmer quenching constant KSV of BTCI in complex with peptide: excitation 295 nm, emission at 355 nm. The method, then: Fluorescence measurements were performed at pH 5.0, 7.4 and 9.0 and 25 °C using the Jasco FP-6500 spectrofluorimeter (Jasco Analytical Instruments) coupled to a Jasco ETC-273T Peltier system (Jasco Analytical Instruments) with water circulation. Both excitation and emission slit were fitted to 5.0 nm and the excitation and emission wavelength were 295 nm and 300–400 nm, respectively. The concentration of BTCI was 25 µM, whereas the concentration of Bk and Bk-related peptides varied from 25 to 500 µM. The BTCI in complex with peptides were investigated by fluorescence quenching as a function of pH. The averages of five fluorescence spectra were recorded and processed by the program Spectra Manager (Jasco Analytical Instruments). The fluorescence emissions were fitted according to the classic Stern-Volmer equation (Equation (2)): F0/F = 1 + KSV[Q] (2) where F and F0 are the fluorescence intensities in the presence and absence of quencher, respectively, KSV is Stern-Volmer constant and Q is the concentration of the quencher.
The binding constants for BTCI, Bk and Bk-related peptides interaction were calculated according to Equation (3): Log[(F0 − F)/F] = LogKb + nLog[Q] (3) where Kb is the binding constant and n is the number of binding sites per BTCI [47].

The test system of data set [7] is BTCI. Put plainly: Dynamic light scattering, BTCI-Bk complex formation. The class given is binding, Vigna unguiculata. The following applies: BTCI 25 µM : peptide 25 µM (1:1), 30 min, 2 mM Tris-HCl pH 7.4, 37 °C. The method, then:
as §1

Data set [8] can be described thus: Cardiovascular effects of infusion of Bk and Bk-related peptides with BTCI or vehicle in anesthetized rats. The following applies: for aortic vasodilation (change in AVC) / change in mean arterial pressure (MAP) / renal vasodilation (change in RVC): from the baseline value, mean ± SEM, 6 experiments. The class given is in vivo, male Wistar rats. The method, then:
All experiments were conducted on adult male Wistar rats (280–350 g). They were obtained from the central animal house of the Federal University of Goiás. Experimental procedures were designed with strict adherence to the National Health Institute Guidelines for Care and Use of Laboratory Animals as approved by the Ethics Committee, Federal University of Goiás (034/12).
On the day of experiments, the rats were anesthetized with halothane (2%–3% in 100% O2; Cristália Ltda, Itapira, SP, Brazil) prior to the catheterization of the right femoral vein and artery. After the catheter placement, the rats were removed from the halothane and the anesthesia was maintained with urethane (1.2 g·kg^−1 b.wt., i.v.; Sigma-Aldrich Co.). The trachea was cannulated to reduce airway resistance. The body temperature was kept at 37 ± 0.5 °C with a thermostatically controlled heated table.
Renal blood flow (RBF) and aortic blood flow (ABF) were measured with an ultrasonic transit-time flowmeter (Transonic Systems, Inc., Ithaca, NY, USA). Data were recorded continuously with an analog-to-digital converter (PowerLab 4/25, ML845, AD Instruments, Bella Vista, Australia). Mean arterial pressure (MAP) was determined from the pulsatile signal. Aortic vascular conductance (AVC) and renal vascular conductance (RVC) were calculated by a ratio of ABF and RBF divided by MAP, and were expressed as percentage of baseline. Increasing doses of BTCI (0.3, 3, 30 and 300 µg·kg^−1, i.v.) were infused.
Results are presented as means ± S.E.M. The effects of infusion of Bk, Bk-related peptides and BTCI on cardiovascular parameters were analyzed by one-way ANOVA. […] A value of Student’s t-test p < 0.05 was considered to denote a significant difference.

In data set [9] the test system is trypsin. Put plainly: Pretreatment of peptides with trypsin. The class given is in vitro ADME.
[10] abbreviates: peptide 120 µg·kg^−1 + BTCI 3 µg·kg^−1, i.v.
[11] abbreviates: peptide 120 µg·kg^−1 i.v. + BTCI 3 µg·kg^−1 i.v.
Where [12] appears, read: peptide 120 µg·kg^−1 i.v., without BTCI.

Where no end group is shown, it is not given here.

Chain of UniProt P01042 (P01042 whole entry, looked up): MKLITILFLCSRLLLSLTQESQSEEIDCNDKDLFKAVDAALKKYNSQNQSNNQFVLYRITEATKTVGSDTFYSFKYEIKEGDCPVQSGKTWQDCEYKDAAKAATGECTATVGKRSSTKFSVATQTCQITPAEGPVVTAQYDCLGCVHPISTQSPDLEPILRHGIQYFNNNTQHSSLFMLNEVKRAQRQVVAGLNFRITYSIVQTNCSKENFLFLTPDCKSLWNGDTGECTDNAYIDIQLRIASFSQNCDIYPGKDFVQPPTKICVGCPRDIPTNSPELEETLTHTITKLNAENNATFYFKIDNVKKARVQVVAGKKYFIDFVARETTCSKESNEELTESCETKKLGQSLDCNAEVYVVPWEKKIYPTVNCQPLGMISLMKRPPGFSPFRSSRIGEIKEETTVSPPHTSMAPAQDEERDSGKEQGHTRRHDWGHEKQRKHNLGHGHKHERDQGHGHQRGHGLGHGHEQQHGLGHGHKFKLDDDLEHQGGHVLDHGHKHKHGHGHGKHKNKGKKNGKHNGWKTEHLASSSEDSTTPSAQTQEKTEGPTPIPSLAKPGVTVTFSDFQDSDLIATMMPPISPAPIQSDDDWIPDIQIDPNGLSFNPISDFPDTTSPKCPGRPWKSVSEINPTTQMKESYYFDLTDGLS

Consider “Black-eyed pea trypsin and chymotrypsin inhibitor (BTCI), Bowman-Birk inhibitor”, for which the Kb in data set [1] (pH 5.0) was 0.59 ×10^3 M^−1; in data set [1] (pH 7.4) it was 0.22 ×10^3 M^−1; in data set [1] (pH 9.0), 1.81 ×10^3 M^−1; in data set [2] (pH 5.0), 0.21 ×10^3 M^−1; in data set [2] (pH 7.4), 9.68 ×10^3 M^−1; in data set [2] (pH 9.0), 0.71 ×10^3 M^−1. Further, the Kb in data set [3] (pH 5.0) was 0.84 ×10^3 M^−1; in data set [3] (pH 7.4) it was 1.02 ×10^3 M^−1; in data set [3] (pH 9.0), 0.23 ×10^3 M^−1.
Take Bradykinin [Bk, reference compound]: in data set [4] (Bk 5.0 µM), the “effect of BTCI on Bk-induced smooth muscle contraction” value is “slightly increased the smooth muscle contraction”. Also, the “effect of BTCI on Bk-induced smooth muscle contraction” value in [4] (Bk 10.0 µM) is “the same effect only when BTCI inhibited trypsin”. For the same substance, the smooth muscle contraction result in [4] (free peptide, 1, 5, 10 µM, 37 °C, triplicate) was “able to induce smooth muscle contraction in a concentration-responsive manner”. Besides, in [4] (with BTCI and trypsin or chymotrypsin, 1.0, 5.0, 10.0 µM), the “smooth muscle contraction in association with BTCI in the presence of serine proteases” value is recorded as “able to induce smooth muscle contraction in a concentration-responsive manner even in association with BTCI in the presence of serine proteases”. Moreover, in data set [5], the “polydispersity, peptide” value was “lower than 0.15”. For the same substance, in data set [6] (pH 5.0, 25 °C), the “binding sites (n) per BTCI molecule” value amounted to 0.88, the “Binding constant Kb (association) of BTCI in complex with peptide” value (shortened to “Binding constant Kb (association)”) came out at 210 M⁻¹ and the “Stern-Volmer quenching constant KSV of BTCI in complex with peptide” value (shortened to “Stern-Volmer quenching constant KSV”) turned out to be 502 M⁻¹. Also, in data set [6] (pH 7.4, 25 °C), the “binding sites (n) per BTCI molecule” value was determined as 1.39, the “Binding constant Kb (association)” value worked out at 9680 M⁻¹ and the “Stern-Volmer quenching constant KSV” value amounted to 553 M⁻¹. Besides, in [6] (pH 9.0, 25 °C), the “binding sites (n) per BTCI molecule” value is reported as 1.06, the “Binding constant Kb (association)” value was determined as 710 M⁻¹ and the “Stern-Volmer quenching constant KSV” value is 468 M⁻¹. The “fluorescence intensity of BTCI (Trp^82) on addition of peptide” value in data set [6] (peptide 25 to 500 µM) is recorded as “progressive decrease in fluorescence intensity”. For the same substance, in data set [7], the “hydrodynamic diameter of BTCI in the presence of peptide” value is reported as “increased from 1.7 nm to 3.3 nm”. Besides, in data set [8] (setting [10]), the “effect of association with BTCI on aortic vasodilation” value is listed as “potentiated” and the “effect of association with BTCI on renal vasodilation” value is “potentiated renal”. In data set [8] (setting [11]), the “aortic vasodilation (change in AVC)” value came out at 16 ± 1.4%, the “change in mean arterial pressure (MAP)” value was −10 ± 1.1 mmHg and the “renal vasodilation (change in RVC)” value amounted to 12 ± 1.1%. Further, in data set [8] (setting [12]), the “aortic vasodilation (change in AVC)” value was found to be 9 ± 1.6%, the “change in mean arterial pressure (MAP)” value is −7 ± 1.2 mmHg and the “renal vasodilation (change in RVC)” value is 9 ± 2%.
Turning to “VPPGFTPFRVD [Bk1, [Val]^1[Thr]^6-bradykinyl-Val-Asp]”, the “product released by trypsin pretreatment in vitro” value in data set [9] (HPLC and mass spectrometry, data not shown) is “release the active Bk fragment”. In data set [9] (pretreatment with trypsin), the “cleavage by trypsin (site)” value is listed as “cleaved on Arg^9-Val^10”.

These data come from PMC6271500, “Bowman-Birk Protease Inhibitor from Vigna unguiculata Seeds Enhances the Action of Bradykinin-Related Peptides” (Molecules, 2014).
